Data as given in publication PMC5076529, “Binding Sites for Acylated Trehalose Analogs of Glycolipid Ligands on an Extended Carbohydrate Recognition Domain of the Macrophage Receptor Mincle” (The Journal of Biological Chemistry, 2016).

Key:
[1] = target: T1, mincle minimal CRD (bovine) (Bos taurus, UniProt E1BHM0, I174T); assay: competition with […]-mannose-BSA on immobilized CRD; assay type: binding
T1 construct: gene CLEC4E; minimal C-type carbohydrate recognition domain, N-terminally truncated, lacks disulfide 4; E. coli, renatured from inclusion bodies
T1 sequence (E1BHM0 79-211 I174T): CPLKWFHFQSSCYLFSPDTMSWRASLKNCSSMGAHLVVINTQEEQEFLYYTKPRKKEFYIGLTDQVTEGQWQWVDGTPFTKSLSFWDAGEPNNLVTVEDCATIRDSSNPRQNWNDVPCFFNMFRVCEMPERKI

[2] = target: T2, mincle extended CRD (bovine) (Bos taurus, UniProt E1BHM0, I174T); assay: X-ray crystallography, […] Å; conditions: pH 5.6 reservoir; primary sugar-binding site, conserved Ca2+; second substituent not visible
T2 construct: gene CLEC4E; extended CRD from Glu-64 to C terminus with one extra N-terminal Ala, includes disulfide 4; E. coli BL21(DE3) inclusion bodies, renatured, trehalose-Sepharose
T2 sequence (E1BHM0 64-211 I174T): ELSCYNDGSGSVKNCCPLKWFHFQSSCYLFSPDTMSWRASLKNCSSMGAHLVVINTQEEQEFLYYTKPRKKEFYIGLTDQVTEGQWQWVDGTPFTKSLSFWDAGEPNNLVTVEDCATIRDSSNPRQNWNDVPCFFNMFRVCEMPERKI

[3] = target: T2, mincle extended CRD (bovine); assay: X-ray crystallography, […] Å; conditions: pH 5.5 reservoir; primary sugar-binding site, conserved Ca2+
[4] = target: T1, mincle minimal CRD (bovine); assay: X-ray crystallography, […] Å; conditions: pH 5.6; primary sugar-binding site, conserved Ca2+; acyl chain only partly visible

Compound | Ki [1] [µM] | other results
CCCCCC(=O)OC[C@H]1O[C@H](O[C@H]2O[C@H](COC(=O)CCCCC)[C@@H](O)[C@H](O)[C@H]2O)[C@H](O)[C@@H](O)[C@@H]1O [Dihexanoate] | 8.2 ± 0.3 | 
COc1cccc(C(=O)OC[C@H]2O[C@H](O[C@H]3O[C@H](COC(=O)c4cccc(OC)c4OC)[C@@H](O)[C@H](O)[C@H]3O)[C@H](O)[C@@H](O)[C@@H]2O)c1OC [brartemicin analog] |  | X-ray crystallography, 1.80 Å [2]: The structure of mincle bound to a synthetic analog of brartemicin was also examined
Cc1cc(O)cc(O)c1C(=O)OC[C@H]1O[C@H](O[C@H]2O[C@H](COC(=O)c3c(C)cc(O)cc3O)[C@@H](O)[C@H](O)[C@H]2O)[C@H](O)[C@@H](O)[C@@H]1O [brartemicin] |  | X-ray crystallography, 2.20 Å [3]: structures of the extended CRD bound to either natural brartemicin or a synthetic analog
CCCC(=O)OC[C@H]1O[C@H](O[C@H]2O[C@H](CO)[C@@H](O)[C@H](O)[C@H]2O)[C@H](O)[C@@H](O)[C@@H]1O [trehalose monobutyrate] |  | X-ray crystallography, 2.10 Å [4]: Co-crystals of trehalose monobutyrate and the CRD of mincle were examined

Second part, led by results:

Ki [1] [µM] | Compound | other results
370 ± 40 | CC(C)C(=O)OC[C@H]1O[C@H](O[C@H]2O[C@H](COC(=O)C(C)C)[C@@H](O)[C@H](O)[C@H]2O)[C@H](O)[C@@H](O)[C@@H]1O [Diisobutyrate] | 
59 ± 2 | CCCCC(=O)OC[C@H]1O[C@H](O[C@H]2O[C@H](COC(=O)CCCC)[C@@H](O)[C@H](O)[C@H]2O)[C@H](O)[C@@H](O)[C@@H]1O [Divalerate] | 
5.1 ± 0.6 | CCCCCCCCCC(=O)OC[C@H]1O[C@H](O[C@H]2O[C@H](CO)[C@@H](O)[C@H](O)[C@H]2O)[C@H](O)[C@@H](O)[C@@H]1O [Monodecanoate] | 
3.1 ± 0.5 | CCCCCCCCCCCC(=O)OC[C@H]1O[C@H](O[C@H]2O[C@H](CO)[C@@H](O)[C@H](O)[C@H]2O)[C@H](O)[C@@H](O)[C@@H]1O [Monododecanoate] | 
137 ± 18 | CCCCCCC(=O)OC[C@H]1O[C@H](O[C@H]2O[C@H](CO)[C@@H](O)[C@H](O)[C@H]2O)[C@H](O)[C@@H](O)[C@@H]1O [Monoheptanoate] | 
